Test results from ChEMBL document CHEMBL1201862, “PubChem BioAssay data set” (2004).
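48-hour exposure; five concentrations; linearly interpolated endpoints. The concentration for 50% growth inhibition is given as GI50.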 The source made the active and inactive calls. No stated cut-off is given here; in the data, active = GI50 up to about 1.1 µM and inactive = higher.

Legend:
Experiment in all cases: NCI-60 cell line screen, 48 h
M19-MEL = tested on: M19-MEL
NCI-H23 = tested on: NCI-H23
OVCAR-3 = tested on: OVCAR-3
UACC-257 = tested on: UACC-257
SR = tested on: SR
SNB-75 = tested on: SNB-75
LXFL 529 = tested on: LXFL 529
RXF 393 = tested on: RXF 393
CCRF-CEM = tested on: CCRF-CEM
MOLT-4 = tested on: MOLT-4
Malme-3M = tested on: Malme-3M
NCI-H226 = tested on: NCI-H226
M14 = tested on: M14
HCC 2998 = tested on: HCC 2998
UO-31 = tested on: UO-31
SW-620 = tested on: SW-620
HL-60 = tested on: HL-60
SN12C = tested on: SN12C
A498 = tested on: A498
SK-MEL-28 = tested on: SK-MEL-28
EKVX = tested on: EKVX
COLO 205 = tested on: COLO 205
SK-OV-3 = tested on: SK-OV-3
HCT-116 = tested on: HCT-116
HOP-18 = tested on: HOP-18
ACHN = tested on: ACHN
HOP-62 = tested on: HOP-62
IGROV-1 = tested on: IGROV-1
SF-268 = tested on: SF-268
U-251 = tested on: U-251
SK-MEL-2 = tested on: SK-MEL-2
OVCAR-4 = tested on: OVCAR-4
DLD-1 = tested on: DLD-1
HOP-92 = tested on: HOP-92
SNB-78 = tested on: SNB-78
KM-20L2 = tested on: KM-20L2
HT-29 = tested on: HT-29
NCI-H460 = tested on: NCI-H460
NCI-H522 = tested on: NCI-H522
HCT-15 = tested on: HCT-15
OVCAR-8 = tested on: OVCAR-8
XF498 = tested on: XF498
A549 = tested on: A549
SNB-19 = tested on: SNB-19
KM12 = tested on: KM12
RPMI-8226 = tested on: RPMI-8226
DMS-114 = tested on: DMS-114
CAKI-1 = tested on: CAKI-1
786-0 = tested on: 786-0
UACC-62 = tested on: UACC-62
OVCAR-5 = tested on: OVCAR-5
LOX IMVI = tested on: LOX IMVI
SF-539 = tested on: SF-539
K562 = tested on: K562
SK-MEL-5 = tested on: SK-MEL-5
TK-10 = tested on: TK-10
SF-295 = tested on: SF-295
DMS-273 = tested on: DMS-273

C=Cc1cncc(C#N)c1CCc1c(C#N)cncc1C=C
GI50 (M19-MEL): > 10 µM (inactive) | GI50 (NCI-H23): > 10 µM (inactive) | GI50 (OVCAR-3): > 10 µM (inactive) | GI50 (UACC-257): > 10 µM (inactive) | GI50 (SR): > 10 µM (inactive) | GI50 (SNB-75): > 10 µM (inactive) | GI50 (LXFL 529): > 10 µM (inactive) | GI50 (RXF 393): 56.5 µM (inactive) | GI50 (CCRF-CEM): > 10 µM (inactive) | GI50 (MOLT-4): > 10 µM (inactive) | GI50 (Malme-3M): > 10 µM (inactive) | GI50 (NCI-H226): > 10 µM (inactive) | GI50 (M14): > 10 µM (inactive) | GI50 (HCC 2998): > 10 µM (inactive) | GI50 (UO-31): > 10 µM (inactive) | GI50 (SW-620): > 10 µM (inactive) | GI50 (HL-60): > 10 µM (inactive) | GI50 (SN12C): > 10 µM (inactive) | GI50 (A498): > 10 µM (inactive) | GI50 (SK-MEL-28): > 10 µM (inactive) | GI50 (EKVX): 49 µM (inactive) | GI50 (COLO 205): > 10 µM (inactive) | GI50 (SK-OV-3): > 10 µM (inactive) | GI50 (HCT-116): > 10 µM (inactive) | GI50 (HOP-18): > 10 µM (inactive) | GI50 (ACHN): > 10 µM (inactive) | GI50 (HOP-62): > 10 µM (inactive) | GI50 (IGROV-1): > 10 µM (inactive) | GI50 (SF-268): > 10 µM (inactive) | GI50 (U-251): > 10 µM (inactive) | GI50 (SK-MEL-2): > 10 µM (inactive) | GI50 (OVCAR-4): > 10 µM (inactive) | GI50 (DLD-1): > 10 µM (inactive) | GI50 (HOP-92): > 10 µM (inactive) | GI50 (SNB-78): > 10 µM (inactive) | GI50 (KM-20L2): > 10 µM (inactive) | GI50 (HT-29): > 10 µM (inactive) | GI50 (NCI-H460): > 10 µM (inactive) | GI50 (NCI-H522): > 10 µM (inactive) | GI50 (HCT-15): > 10 µM | GI50 (OVCAR-8): > 10 µM (inactive) | GI50 (XF498): > 10 µM (inactive) | GI50 (A549): > 10 µM (inactive) | GI50 (SNB-19): > 10 µM (inactive) | GI50 (KM12): > 10 µM (inactive) | GI50 (RPMI-8226): > 10 µM (inactive) | GI50 (DMS-114): > 10 µM (inactive) | GI50 (CAKI-1): 63.2 µM (inactive) | GI50 (786-0): > 10 µM (inactive) | GI50 (UACC-62): > 10 µM (inactive) | GI50 (OVCAR-5): > 10 µM (inactive) | GI50 (LOX IMVI): > 100 µM (inactive) | GI50 (SF-539): > 10 µM (inactive) | GI50 (K562): > 10 µM (inactive) | GI50 (SK-MEL-5): > 10 µM (inactive) | GI50 (TK-10): > 10 µM (inactive) | GI50 (SF-295): > 10 µM (inactive) | GI50 (DMS-273): > 10 µM (inactive)

N#CC(C#N)=Cc1cccc(Oc2ccccc2)c1
GI50 (M19-MEL): 27.5 µM (inactive) | GI50 (NCI-H23): 14.9 µM (inactive) | GI50 (OVCAR-3): 23 µM (inactive) | GI50 (UACC-257): 16.8 µM (inactive) | GI50 (SR): 8.93 µM (inactive) | GI50 (SNB-75): 29.2 µM (inactive) | GI50 (LXFL 529): 18.5 µM (inactive) | GI50 (RXF 393): 17.7 µM (inactive) | GI50 (CCRF-CEM): 20.6 µM (inactive) | GI50 (MOLT-4): 25 µM (inactive) | GI50 (Malme-3M): 20.1 µM (inactive) | GI50 (NCI-H226): 33 µM (inactive) | GI50 (M14): 19.6 µM (inactive) | GI50 (HCC 2998): 28.4 µM (inactive) | GI50 (UO-31): 15.9 µM (inactive) | GI50 (SW-620): 25.6 µM (inactive) | GI50 (HL-60): 18.5 µM (inactive) | GI50 (SN12C): 22.5 µM (inactive) | GI50 (A498): > 63.2 µM (inactive) | GI50 (SK-MEL-28): 13.8 µM (inactive) | GI50 (EKVX): 54.2 µM (inactive) | GI50 (COLO 205): 29 µM (inactive) | GI50 (SK-OV-3): 71.6 µM (inactive) | GI50 (HCT-116): 17.1 µM (inactive) | GI50 (HOP-18): 16.7 µM (inactive) | GI50 (ACHN): 18.2 µM (inactive) | GI50 (HOP-62): 23.4 µM (inactive) | GI50 (IGROV-1): 26.8 µM (inactive) | GI50 (SF-268): 19.1 µM (inactive) | GI50 (U-251): 13.6 µM (inactive) | GI50 (SK-MEL-2): 21.2 µM (inactive) | GI50 (DLD-1): 22.5 µM (inactive) | GI50 (SNB-78): 29.2 µM (inactive) | GI50 (KM-20L2): 37.4 µM (inactive) | GI50 (HT-29): 22.7 µM (inactive) | GI50 (NCI-H460): 25.5 µM (inactive) | GI50 (NCI-H522): 21.2 µM (inactive) | GI50 (HCT-15): 35.1 µM | GI50 (OVCAR-8): 19.1 µM (inactive) | GI50 (XF498): 20.2 µM (inactive) | GI50 (A549): 70.3 µM (inactive) | GI50 (SNB-19): 22 µM (inactive) | GI50 (KM12): 22.3 µM (inactive) | GI50 (RPMI-8226): 20.9 µM (inactive) | GI50 (DMS-114): 26.2 µM (inactive) | GI50 (CAKI-1): 25.6 µM (inactive) | GI50 (786-0): 18.6 µM (inactive) | GI50 (UACC-62): 22.3 µM (inactive) | GI50 (OVCAR-5): > 67.1 µM (inactive) | GI50 (LOX IMVI): 20.6 µM (inactive) | GI50 (SF-539): 18.4 µM (inactive) | GI50 (K562): 23.7 µM (inactive) | GI50 (SK-MEL-5): 18.9 µM (inactive) | GI50 (TK-10): 31.7 µM (inactive) | GI50 (SF-295): 20.2 µM (inactive) | GI50 (DMS-273): 19 µM (inactive)
